Data published in patent US20090081183A1, “HIV Transcription Repressor Complex and Compositions and Methods Based Thereon” (priority 1997, published 2009).
Like-named read-outs stand apart in the source and are kept apart here.

How the values were obtained:
[1] = system: HIV-1 LTR; assay: Tat-activated integrated LTR-CAT reporter assay in HeLa-CD4-LTR cells; assay type: cell-based
Protocol: (§1) Cell lines transfections and assays. Transfections of HeLa cells were performed as previously described (49). HeLa-CD4-LTR (9) cells were grown in DMEM supplemented with 10% FCS and transfected with 20 μg plasmid DNA (prepared using EndoFree plasmid kit, Qiagen, Valencia, Calif.) by calcium phosphate coprecipitation as per manufacturer's instructions (ProFection system, Promega, Madison, Wis.). After 30 minutes at room temperature, the solution was added to the cells (2.5-4×10^5 cells/plate). Twelve hours after transfection, the cells were washed with PBS and fed fresh medium. Forty-eight hours later the cells were harvested, cellular extracts prepared, and CAT assays performed as previously described (49). To control for the effect of transcription factor overexpression on general cellular promoters a reporter construct driven by the beta-actin promoter, pH[…]-actin-luciferase (66), was used in cotransfection and CAT expression normalized for luciferase activity. Other plasmids used have been previously described (2, 49). […] Up to 30 μl of cellular extract (normalized for protein concentration) in a final volume of 130 μl was used for luciferase reactions.
The LTR reporter carried by HeLa-CD4-LTR cell line exists within the native chromatin structure of the genome. […]

[2] = system: HIV-1 LTR; assay: Tat-activated, LTR-driven CAT expression, plasmid-based reporter, transient cotransfection; assay type: cell-based; conditions: data not shown
Protocol: as §1

[3] = system: HIV-1; conditions: HeLa cells cotransfected with pNL4-3 (CXCR4) or pYU-2 (CCR5)
Protocol: For virus production experiments 2×10^4 HeLa cells were transfected with 10 μl of Superfect (Qiagen, Valencia, Calif.) and 2.5-3.0 μg of DNA in a volume of 0.6 ml for 3 hours, washed with PBS, and then grown in 2 ml. Aliquots of culture medium were sampled for detection of HIV-1 p24^gag protein by antigen capture enzyme-linked immunosorbent assay according to the manufacturer's instructions (Coulter Corporation, Hialeah, Fla.).
As these cells support HIV replication but cannot be infected, a measurement of the effect of YY1 on a single round of viral replication can be made.
The influence of YY1 on viral production was assayed by testing of culture supernatant for the presence of the viral protein p24^gag.

[4] = system: RCS oligonucleotide (−10 to +27 of HIV-1 LTR); assay type: binding

Row | Molecule | Tat-activated CAT expression from integrated LTR reporter ([1]; 200 ng pAR-Tat, 2.5 μg CMV expression plasmid, normalized to β-actin-luciferase) | Tat-activated, LTR-driven CAT expression (plasmid-based reporter) [2] | HIV-1 production (p24gag in culture supernatant) [3] | Complex formation with the RCS in EMSA ([4]; 20 ng to 100 ng added in the presence of 10 ng of LSF) | Complex formation with the RCS in EMSA ([4]; up to 100 ng protein alone) | Effect on YY1-mediated repression of integrated LTR-CAT expression ([1]; with YY1 transfection, trichostatin-A added to culture medium (data not shown))
1 | YY1: cellular transcription factor that binds the RCS and inhibits LTR-driven HIV transcription (SEQ ID NO: 3) | inhibited Tat-activated CAT activity | inhibited Tat-activated, LTR-driven CAT expression | dose-dependent inhibition | increasing levels of complex formation | did not form a detectable complex | –
2 | CC(/C=C/C(=O)NO)=C\[C@@H](C)C(=O)c1ccc(N(C)C)cc1 [trichostatin-A, reference compound] | – | – | – | – | – | blocked
